Experimental data as given in PMC5296225 (European journal of medicinal chemistry, 2016).

Key:
Saporin L3 (SAP) = assay type: biochemical, Saponaria officinalus
SAP (saporin L3) [1] = molecular target: T1, SAP (saporin L3) (Saponaria officinalis, UniProt Q2QEH4); test: Competitive inhibition of saporin L3 with stem-loop RNA A10; assay type: biochemical
SAP and SAP-A14C = test: Inhibition of SAP hydrolysis of yeast tRNA and rabbit rRNA; assay type: biochemical, Saponaria officinalus; settings: rabbit 80S ribosome 100 nM or yeast tRNA 1.0 mg/mL; 10 min preincubation
SAP (saporin L3) [2] = molecular target: T1, SAP (saporin L3); test: Ki* quoted in Table 1 from ref 19; assay type: biochemical; settings: read-out: Inhibition constant Ki* (nM), value taken from Schramm et al. [19]; cited from earlier work

T1 sequence (Q2QEH4 22-280 limits assumed): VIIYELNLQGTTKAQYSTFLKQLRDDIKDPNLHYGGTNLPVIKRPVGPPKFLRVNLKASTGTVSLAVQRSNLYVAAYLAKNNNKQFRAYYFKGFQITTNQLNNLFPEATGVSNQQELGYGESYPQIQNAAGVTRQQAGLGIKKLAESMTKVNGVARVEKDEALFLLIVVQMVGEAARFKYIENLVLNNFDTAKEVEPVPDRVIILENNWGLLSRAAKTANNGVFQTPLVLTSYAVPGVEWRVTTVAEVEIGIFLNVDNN

With GpGpDIApPD [Compound 41] the “inhibition of SAP (in words)” value (Saporin L3 (SAP)) was “weak inhibitors”.
In the case of `CO[C@@H]1[C@H](O)[C@@H](COP(=O)(O)O[C@H]2CN(Cc3c[nH]c4c(N)ncnc34)C[C@@H]2COP(=O)(O)O[C@H]2[C@@H](OC)[C@H](n3cnc4c(=O)[nH]c(N)nc43)O[C@@H]2CO)O[C@H]1n1cnc2c(=O)[nH]c(N)nc21` [compound 32, GpDIApG (2'-O-methyl guanosines)], the Ki (SAP (saporin L3) [1]) is reported as 0.033 ± 0.0017 µM.
In the case of PDpHomoSerpGpPD [Compound 52], the “inhibition of SAP (in words)” value (Saporin L3 (SAP)) is reported as “good inhibitors”.
In the case of PDpDIApGpPD [Compound 2], the “inhibition of hydrolysis of yeast tRNA and rabbit rRNA by SAP and SAP-A14C” value (SAP and SAP-A14C) is reported as “inhibits”.
For “serinol analogue of PDpDIApGpPD (Ser = serinol; PD = propanediol) [PDpSerpGpPD]”, the Ki (SAP (saporin L3) [2]) is listed as 43.2 ± 1.1 nM.
For PDpGpDIApPD [Compound 39], the “inhibition of SAP (in words)” value (Saporin L3 (SAP)) was “weak inhibitors”.
For “catalytically inactive substrate analogue PDpApGpPD (adenosine in place of DIA; PD = propanediol)”, the Ki (SAP (saporin L3) [1]; read-out: Inhibition constant Ki*) was 16 µM.
PDpApGpPD [reference compound] gave a Ki (Saporin L3 (SAP); RNA A10 substrate, slow-onset dissociation constant) of 16.1 µM.
